System: sC5b-9
Test: Phase 2a study: urinary sC5b-9 (MicroVue sC5b-9 Enzyme Immunoassay);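 further: urine from C3 glomerulopathy or IC-MPGN patients, sandwich ELISA capturing sC5b-9 via C9-ring monoclonal with HRP detection read at 450 nm, values raw or normalized to creatinine or albumin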
[1] = Patient A, 100 mg TID, Day 1/0 Hour
[2] = Patient A, 100 mg TID, Day 7/0 Hour
[3] = Patient A, 100 mg TID, Day 15 Taper
[4] = Patient A, 100 mg TID, Day 16 Taper
[5] = Patient A, 100 mg TID, Day 17 Taper
[6] = Patient A, 100 mg TID, Day 21 Taper
[7] = Patient A, 100 mg TID, Follow-Up Day 24
[8] = Patient A, 100 mg TID, Follow-Up Day 28
[9] = Patient A, 100 mg TID, Follow-Up Day 49
[10] = Patient B, 100 mg TID, Day 1/0 Hour
[11] = Patient B, 100 mg TID, Day 7/0 Hour
[12] = Patient B, 100 mg TID, Day 15 Taper
[13] = Patient B, 100 mg TID, Day 16 Taper
[14] = Patient B, 100 mg TID, Day 17 Taper
[15] = Patient B, 100 mg TID, Day 21 Taper
[16] = Patient B, 100 mg TID, Follow-Up Day 24
[17] = Patient B, 100 mg TID, Follow-Up Day 28
[18] = Patient B, 100 mg TID, Follow-Up Day 49
[19] = Patient C, 200 mg TID, Day 1/0 Hour
[20] = Patient C, 200 mg TID, Day 7/0 Hour
[21] = Patient C, 200 mg TID, Day 15 Taper
[22] = Patient C, 200 mg TID, Day 16 Taper
[23] = Patient C, 200 mg TID, Day 17 Taper
[24] = Patient C, 200 mg TID, Day 21 Taper
[25] = Patient C, 200 mg TID, Follow-Up Day 24
[26] = Patient C, 200 mg TID, Follow-Up Day 28
[27] = Patient C, 200 mg TID, Follow-Up Day 49
[28] = Patient C, 200 mg TID, Screen 1
[29] = Patient D, 200 mg TID, Day 1/0 Hour
[30] = Patient D, 200 mg TID, Day 7/0 Hour
[31] = Patient D, 200 mg TID, Day 15 Taper
[32] = Patient D, 200 mg TID, Day 17 Taper

Excerpt: 10 patients with either C3 Glomerulopathy (C3G) or Immune-Complex Membranoproliferative Glomerulonephritis (IC-MPGN) are to be enrolled across two dose groups. […] Inclusion criteria include a clinical diagnosis of C3G (C3 glomerulonephritis [C3GN] or dense deposit disease [DDD], the 2 types of C3G) or idiopathic immune-complex membranoproliferative glomerulonephritis (IC-MPGN) by renal biopsy for at least 3 months prior to dosing, with the pathologic diagnosis verified by review of the renal biopsy by the study central pathologist. Patients must have low C3 levels (<50% of the lower limit of normal) and normal or near-normal C4 levels (>90% of the lower limit of normal).
To measure urinary sC5b-9 production, patient urine samples were tested utilizing the MicroVue sC5b-9 Enzyme Immunoassay for the quantitation of sC5b-9 in urine. […] The samples were tested utilizing the MicroVue sC5b-9 Enzyme Immunoassay for the quantitation of sC5b-9 urine, which is a three-step procedure utilizing a micro-assay plate coated with a mouse monoclonal antibody that binds specifically to the C9 ring of sC5b-9, HRP-conjugated antibodies to antigens of sC5b-9, and a chromogenic substrate. In step 1, standards, controls, and test specimens are added to micro-assay wells pre-coated with an anti-sC5b-9 specific monoclonal antibody. sC5b-9 present in the Standards, Controls, or specimens will bind to the immobilized sC5b-9 monoclonal antibody. After incubation, a wash cycle removes unbound material. […] In step 2, horseradish peroxidase (HRP)-conjugated antibodies to antigens of sC5b-9 are added to each test well. The enzyme conjugated antibodies bind to sC5b-9 that was captured by the monoclonal anti-sC5b-9 bound on the surface of the micro-assay wells. After incubation, a wash cycle removes unbound, excess conjugate. In step 3, a chromogenic enzyme substrate is added to each micro-assay well. The bound HRP-conjugate reacts with the substrate, forming a blue color. After incubation the enzyme reaction is stopped chemically, the color changes to yellow, and the color intensity is measured spectrophotometrically at 450 nm. The color intensity of the reaction mixture is proportional to the concentration of sC5b-9 present in the test specimens, standards, and controls. […] Measurements of urinary biomarkers are typically normalized to urine creatinine or albumin levels to account for variation in biomarker levels due to changes in urinary filtration rate.

SMILES: CC(=O)c1nn(CC(=O)N2C[C@H](F)C[C@H]2C(=O)Nc2cccc(Br)n2)c2ccc(-c3cnc(C)nc3)cc12 [Compound 1, (2S,4R)-1-(2-(3-acetyl-5-(2-methylpyrimidin-5-yl)-1H-indazol-1-yl)acetyl)-N-(6-bromopyridin-2-yl)-4-fluoropyrrolidine-2-carboxamide]
- sC5b-9/ALB [1]: 38 ng/mg
- sC5b-9/Cr [1]: 9.9 µg/mmol
- Urine sC5b-9 (Patient A, 100 mg TID, Day 1 predose): 81.2 ng/mL
- Urine sC5b-9 (Patient A, 100 mg TID, Day 4): 84.2 ng/mL
- sC5b-9/ALB (Patient A, 100 mg TID, Day 4): 48 ng/mg
- sC5b-9/Cr (Patient A, 100 mg TID, Day 4): 10.5 µg/mmol
- Urine sC5b-9 (Patient A, 100 mg TID, Day 7): 70.4 ng/mL
- sC5b-9/ALB [2]: 46 ng/mg
- sC5b-9/Cr [2]: 10.7 µg/mmol
- Urine sC5b-9 (Patient A, 100 mg TID, Day 10): 52.0 ng/mL
- sC5b-9/ALB (Patient A, 100 mg TID, Day 10): 37 ng/mg
- sC5b-9/Cr (Patient A, 100 mg TID, Day 10): 8.4 µg/mmol
- Urine sC5b-9 [3]: 56.9 ng/mL
- sC5b-9/ALB [3]: 54 ng/mg
- sC5b-9/Cr [3]: 7.8 µg/mmol
- Urine sC5b-9 [4]: 66.2 ng/mL
- sC5b-9/ALB [4]: 62 ng/mg
- sC5b-9/Cr [4]: 8.8 µg/mmol
- Urine sC5b-9 [5]: 84.4 ng/mL
- sC5b-9/ALB [5]: 74 ng/mg
- sC5b-9/Cr [5]: 8.5 µg/mmol
- Urine sC5b-9 [6]: 85.8 ng/mL
- sC5b-9/ALB [6]: 70 ng/mg
- sC5b-9/Cr [6]: 9.9 µg/mmol
- Urine sC5b-9 [7]: 95.0 ng/mL
- sC5b-9/ALB [7]: 69 ng/mg
- sC5b-9/Cr [7]: 9.5 µg/mmol
- Urine sC5b-9 [8]: 79.7 ng/mL
- sC5b-9/ALB [8]: 61 ng/mg
- sC5b-9/Cr [8]: 8.0 µg/mmol
- Urine sC5b-9 [9]: 57.5 ng/mL
- sC5b-9/ALB [9]: 92 ng/mg
- sC5b-9/Cr [9]: 13.4 µg/mmol
- Urine sC5b-9 (Patient A, 100 mg TID, Screen): 76.3 ng/mL
- sC5b-9/ALB (Patient A, 100 mg TID, Screen): 40 ng/mg
- sC5b-9/Cr (Patient A, 100 mg TID, Screen): 9.2 µg/mmol
- sC5b-9/ALB [10]: 1500 ng/mg
- sC5b-9/Cr [10]: 866 µg/mmol
- Urine sC5b-9 (Patient B, 100 mg TID, Day 1 predose): 5280 ng/mL
- Urine sC5b-9 (Patient B, 100 mg TID, Day 4): 2139 ng/mL
- sC5b-9/ALB (Patient B, 100 mg TID, Day 4): 637 ng/mg
- sC5b-9/Cr (Patient B, 100 mg TID, Day 4): 168 µg/mmol
- Urine sC5b-9 (Patient B, 100 mg TID, Day 7): 2266 ng/mL
- sC5b-9/ALB [11]: 624 ng/mg
- sC5b-9/Cr [11]: 155 µg/mmol
- Urine sC5b-9 (Patient B, 100 mg TID, Day 10): 1073 ng/mL
- sC5b-9/ALB (Patient B, 100 mg TID, Day 10): 563 ng/mg
- sC5b-9/Cr (Patient B, 100 mg TID, Day 10): 143 µg/mmol
- Urine sC5b-9 (Patient B, 100 mg TID, Day 14): 4010 ng/mL
- sC5b-9/ALB (Patient B, 100 mg TID, Day 14): 911 ng/mg
- sC5b-9/Cr (Patient B, 100 mg TID, Day 14): 240 µg/mmol
- Urine sC5b-9 [12]: 3334 ng/mL
- sC5b-9/ALB [12]: 929 ng/mg
- sC5b-9/Cr [12]: 303 µg/mmol
- Urine sC5b-9 [13]: 4784 ng/mL
- sC5b-9/ALB [13]: 1154 ng/mg
- sC5b-9/Cr [13]: 380 µg/mmol
- Urine sC5b-9 [14]: 2693 ng/mL
- sC5b-9/ALB [14]: 907 ng/mg
- sC5b-9/Cr [14]: 238 µg/mmol
- Urine sC5b-9 [15]: 2469 ng/mL
- sC5b-9/ALB [15]: 821 ng/mg
- sC5b-9/Cr [15]: 305 µg/mmol
- Urine sC5b-9 [16]: 3958 ng/mL
- sC5b-9/ALB [16]: 1380 ng/mg
- sC5b-9/Cr [16]: 649 µg/mmol
- Urine sC5b-9 [17]: 2376 ng/mL
- sC5b-9/ALB [17]: 882 ng/mg
- sC5b-9/Cr [17]: 335 µg/mmol
- Urine sC5b-9 [18]: 14132 ng/mL
- sC5b-9/ALB [18]: 6312 ng/mg
- sC5b-9/Cr [18]: 883 µg/mmol
- Urine sC5b-9 (Patient B, 100 mg TID, Screen): 2598 ng/mL
- sC5b-9/ALB (Patient B, 100 mg TID, Screen): 724 ng/mg
- sC5b-9/Cr (Patient B, 100 mg TID, Screen): 351 µg/mmol
- sC5b-9/ALB [19]: 203 ng/mg
- sC5b-9/Cr [19]: 11.9 µg/mmol
- Urine sC5b-9 (Patient C, 200 mg TID, Day 1 predose): 21.5 ng/mL
- Urine sC5b-9 (Patient C, 200 mg TID, Day 4): <8.8 ng/mL
- sC5b-9/ALB (Patient C, 200 mg TID, Day 4): 173 ng/mg
- sC5b-9/Cr (Patient C, 200 mg TID, Day 4): 4.63 µg/mmol
- Urine sC5b-9 (Patient C, 200 mg TID, Day 7): <8.8 ng/mL
- sC5b-9/ALB [20]: 110 ng/mg
- sC5b-9/Cr [20]: 2.38 µg/mmol
- Urine sC5b-9 (Patient C, 200 mg TID, Day 10): <8.8 ng/mL
- sC5b-9/ALB (Patient C, 200 mg TID, Day 10): 160 ng/mg
- sC5b-9/Cr (Patient C, 200 mg TID, Day 10): 5.50 µg/mmol
- Urine sC5b-9 (Patient C, 200 mg TID, Day 14): <8.8 ng/mL
- sC5b-9/ALB (Patient C, 200 mg TID, Day 14): 220 ng/mg
- sC5b-9/Cr (Patient C, 200 mg TID, Day 14): 6.77 µg/mmol
- Urine sC5b-9 [21]: <8.8 ng/mL
- sC5b-9/ALB [21]: 131 ng/mg
- sC5b-9/Cr [21]: 5.87 µg/mmol
- Urine sC5b-9 [22]: <8.8 ng/mL
- sC5b-9/ALB [22]: 176 ng/mg
- sC5b-9/Cr [22]: 4.63 µg/mmol
- Urine sC5b-9 [23]: <8.8 ng/mL
- sC5b-9/ALB [23]: 126 ng/mg
- sC5b-9/Cr [23]: 4.00 µg/mmol
- Urine sC5b-9 [24]: 10.3 ng/mL
- sC5b-9/ALB [24]: 158 ng/mg
- sC5b-9/Cr [24]: 3.67 µg/mmol
- Urine sC5b-9 [25]: 11.0 ng/mL
- sC5b-9/ALB [25]: 186 ng/mg
- sC5b-9/Cr [25]: 6.11 µg/mmol
- Urine sC5b-9 [26]: 21.2 ng/mL
- sC5b-9/ALB [26]: 154 ng/mg
- sC5b-9/Cr [26]: 7.32 µg/mmol
- Urine sC5b-9 [27]: 14.0 ng/mL
- sC5b-9/ALB [27]: 149 ng/mg
- sC5b-9/Cr [27]: 3.04 µg/mmol
- Urine sC5b-9 (Patient C, 200 mg TID, Screen): 32.1 ng/mL
- sC5b-9/ALB (Patient C, 200 mg TID, Screen): 387 ng/mg
- sC5b-9/Cr (Patient C, 200 mg TID, Screen): 16.9 µg/mmol
- Urine sC5b-9 [28]: 57.4 ng/mL
- sC5b-9/ALB [28]: 422 ng/mg
- sC5b-9/Cr [28]: 52.2 µg/mmol
- sC5b-9/ALB [29]: 22 ng/mg
- sC5b-9/Cr [29]: 4.8 µg/mmol
- Urine sC5b-9 (Patient D, 200 mg TID, Day 1 predose): 28.1 ng/mL
- Urine sC5b-9 (Patient D, 200 mg TID, Day 4): 18.5 ng/mL
- sC5b-9/ALB (Patient D, 200 mg TID, Day 4): 15 ng/mg
- sC5b-9/Cr (Patient D, 200 mg TID, Day 4): 4.1 µg/mmol
- Urine sC5b-9 (Patient D, 200 mg TID, Day 7): 15.8 ng/mL
- sC5b-9/ALB [30]: 43 ng/mg
- sC5b-9/Cr [30]: 14.3 µg/mmol
- Urine sC5b-9 (Patient D, 200 mg TID, Day 10): 8.9 ng/mL
- sC5b-9/ALB (Patient D, 200 mg TID, Day 10): 14 ng/mg
- sC5b-9/Cr (Patient D, 200 mg TID, Day 10): 8.9 µg/mmol
- Urine sC5b-9 (Patient D, 200 mg TID, Day 14): 12.0 ng/mL
- sC5b-9/ALB (Patient D, 200 mg TID, Day 14): 13 ng/mg
- sC5b-9/Cr (Patient D, 200 mg TID, Day 14): 3.9 µg/mmol
- Urine sC5b-9 [31]: 20.3 ng/mL
- sC5b-9/ALB [31]: 10 ng/mg
- sC5b-9/Cr [31]: 4.8 µg/mmol
- Urine sC5b-9 [32]: 15.3 ng/mL
- sC5b-9/ALB [32]: 9 ng/mg
- sC5b-9/Cr [32]: 5.3 µg/mmol

Source: patent US20210215714A1, “COMPLEMENT ALTERNATIVE PATHWAY-ASSOCIATED NEPHROPATHY BIOMARKERS” (Achillion Pharmaceuticals, Inc., priority 2018, published 2021)
